“And” between values parts separate entries of the source, which are not always exact repeats. Equal values may be shown once.
Key:
[1] = Safety and tolerability of oral (Z)-Endoxifen in healthy female volunteers; assay type: in vivo, human
Description: Study assessments included taking the subjects medical history, including evaluation of any on-study adverse events and concomitant medication use; height and weight; physical examination; periodic vital signs (body temperature, heart rate, respiratory rate, blood pressure); periodic 12-lead ECGs. […] Specific assessments to evaluate treatment safety included the following: the frequency and type of adverse events, clinical laboratory testing, 12-lead ECGs and vital signs. A modified FACT-ES® scoring questionnaire was used to assess symptomatology.
Safety endpoints were summarized by dose cohort, with placebos pooled across cohorts. Treatment-emergent AEs were coded using the latest version of MedDRA by System Organ Class (SOC) and Preferred Term, classified from verbatim terms. The incidence and frequency of AEs, and SAEs, were summarized by cohort according to SOC and Preferred Terms, and by severity and relationship. The duration of AEs was determined and included in listings, along with the action taken and outcome. Vital signs, ECG and safety laboratory parameters were summarized at each scheduled time point using descriptive statistics. Post-dose assessments were compared with baseline measurements. The incidence of laboratory abnormalities was summarized. Physical examination findings were presented in listings.

[2] = Comparison of (Z)-endoxifen concentrations (oral) with published literature (Table 22); assay type: in vivo

With `CC/C(=C(\c1ccc(O)cc1)c1ccc(OCCNC)cc1)c1ccccc1` [(Z)-Endoxifen, (Z)-4-(1-(4-(2-(methylamino)ethoxy)phenyl)-2-phenylbut-1-enyl) phenol] the “subjects with treatment related AEs of moderate severity” value ([1]; 5 of 18 subjects) was 28%, the “subjects with treatment-emergent AEs deemed related to study drug” value ([1]; 15 of 18 subjects, oral 1-4 mg) was 83% and the “number of treatment related AEs of moderate severity” value ([1]; 18 subjects) was 6 AEs. The “number of treatment-related AEs” value ([1]; 18 subjects, oral 1-4 mg) was 41 AEs, the “severity of AEs” value ([1]; all AEs mild (75 of 84) or moderate (9 of 84), incl. placebo) was “no AEs classified as severe” and the “adverse events reported only in subjects who received (Z)-Endoxifen” value ([1]; human, in vivo) was “Upper respiratory infection, hot flush, abdominal distension, dry mouth, and menstruation delayed”. For the same compound, the “safety by clinical laboratory tests, vital signs, ECG, FACT-ES versus placebo” value ([1]; human, in vivo) was “no clear differences in safety”, the “% Ratio of Css Study/Literature” value ([2]; oral dose 1 mg) was 154% and the “Study Result of Average Serum (Z)-Endoxifen Css” value (“Study Result of Average Serum” below) ([2]; oral dose 1 mg) was 19.1 ng/mL and 51.1 nM. For the same compound, the “% Ratio of Css Study/Literature” value ([2]; oral dose 2 mg) was 204%, the “Study Result of Average Serum” value ([2]; oral dose 2 mg) was 38 ng/mL and 101.7 nM and the “% Ratio of Css Study/Literature” value ([2]; oral dose 4 mg) was 150%. The “Study Result of Average Serum” value ([2]; oral dose 4 mg) was 85.1 ng/mL and 227.9 nM.

Source: US12275684B2, “Methods for making and using endoxifen” (Atossa Therapeutics, Inc., priority 2017, dated 2025)
